Laboratory results reported in patent US10092566B2, “Composition for controlling a gut immunity and use thereof” (SEOUL NATIONAL UNIVERSITY R&DB FOUNDATION, priority 2013, dated 2018).

Legend:
[1] = system: DUOX; assay: In vivo ROS detection in gut epithelia (HOCl-specific R19S staining, ratio of ROS-positive guts); set-up: species or system Drosophila
Source text: R19S, a recently developed HOCl-specific rhodamine-based dye, was used in this experiment (Chen et al., Chem Commun (Camb) 47, pp. 4373-4375, 2011). R19S was purchased from Futurechem (Seoul, South Korea). […]
Furthermore, to measure the basal level of ROS in germ-free animals, Drosophila monoassociated with each bacterium (C. intestini, A. pomorum, L. plantarum, G. morbifer, G. morbifer-carA::Tn5, L. brevis, or L. brevisΔcarA) were experimented with as disclosed above. A 5% sucrose solution containing 10 μM of R19S was orally administered to the monoassociated Drosophila (13 days old) for 90 minutes.
Following the R19S ingestion, the midguts were dissected and fixed with 4% formaldehyde. The level of HOCl (ROS level) was visualized by LSM700 confocal microscopy (Carl Zeiss).
For all of the experiments, R19S-positive guts in each animal group (n=approx. 20) were measured by each independent experiment, and data was indicated by at least three repeated and independent experiments. The number of R19S-positive guts in regard to the total numbers of gut samples was indicated as the ratio of ROS-positive guts.

[2] = system: E. carotovora-pyrE::Tn5; assay: Gut infection and survival analysis; assay type: in vivo, Erwinia carotovora; conditions: coingestion of 1 nM uracil with E. carotovora-pyrE::Tn5
Source text: During the late exponential phase, different bacteria (E. carotovora, E. carotovora-pyrE::Tn5, E. carotovora-pyrE::Tn5-pyrE, E. carotovora-guaA::Tn5, and E. carotovora-purC::Tn5) were obtained by the centrifugation, and the pellets were washed with PBS and suspended in a 5% sucrose solution. Without a hunger stage, to continuously provide Drosophila with bacteria while being infected, male adult Drosophila (5 to 6 days old) were moved to the bottle with filter paper soaked with a 5% sucrose solution containing different bacteria. The filter paper was changed every day. During the recovery experiment, the coingestion of E. carotovora-pyrE::Tn5 (+uracil) and 1 nM of uracil or the expression of an E. carotovora-pyrE::Tn5 strain, which was genetically recovered by the expression of functional pyrE genes (+pyrE), was utilized.

[3] = system: DUOX2; assay: ROS measurement in human epithelial cells (Caco-2, NHNE; DCF-DA); assay type: cell-based; conditions: uracil 50 nM, 15 minutes; Caco-2 and normal human nasal epithelial cells
Source text: Human middle turbinated bone specimens were obtained from healthy volunteers after the research proposal was approved by Yonsei University College of Medicine Audit Committee. The culture system used for normal human nasal epithelial (NHNE) cells is disclosed in the previous research (Yoon et al., Am J Respir Cell Mol Biol 16, pp. 724-731, 1997; Yoon et al., Ann Otol Rhinol Laryngol 109, pp. 594-601, 2000). Briefly speaking, two passages of NHNE cells (1×10^5 cells/culture) were inoculated into a Transwell-transparent culturing insert characterized by 24.5 mm and 0.45 μm pore sizes (Costar Co., Corning, N.Y., USA) containing 0.5 mL of culturing media. The cells were cultured in a 1:1 mixture containing basic epithelium growth media including all additives disclosed in the previous research (Yoon et al., Ann Otol Rhinol Laryngol 109, pp. 594-601, 2000) and Dulbecco' s Modified Eagle Medium (DMEM). […]
After stimulating NHNE cells or Caco-2 cells, the cells were washed with Hanks' balanced salt solution (HBSS), were placed in Krebs-Ringer solution containing 5 μM of 2′,7′-dichlorofluorescin diacetate (DCF-DA; Molecular Probes, Eugene Oreg., USA), and cultured in darkness for 10 minutes. […] Fluorescence was measured at an excitation wavelength of 488 nm and an emission wavelength ranging from 515 nm to 540 nm. […]

With `O=c1cc[nH]c(=O)[nH]1` [uracil] the “infection-induced gut ROS after coingestion of uracil with URA− strain” value ([1]; E. carotovora-pyrE::Tn5 plus uracil) was “normal level of infection-induced ROS”, the “lowest concentration inducing gut ROS generation” value ([1]; dose-dependent analysis, oral ingestion, adult Drosophila) was ≥ 10 pM and the “ROS-inducing ability / DUOX activation” value ([1]; nucleobases and pyrimidine analogs, 20 nM each, ingestion for 15 minutes) was “capable of activating DUOX”. For the same compound, the “gut ROS generation” value ([1]; uracil 20 nM for 1.5 hours, PLCβ-DUOX signaling-dependent (absent in DUOX-RNAi, PLCβ−/−)) was “generation of large amounts of gut ROS”, the “requirement of Gαq for uracil-induced ROS generation” value ([1]; uracil 20 nM for 1.5 hours, control vs Gαq−/− flies) was “required” and the “uracil-induced ROS generation in presence of commensal bacteria in the gut” value ([1]; uracil 20 nM, 1.5 hours, GF flies monoassociated with C. intestini, A. pomorum or L. plantarum) was “could not inhibit the ROS-generating ability of uracil”. For the same compound, the “host survival rate after URA− pathogen infection” value [2] was “sufficient to restore the host survival rate” and the “DUOX-dependent ROS generation in human mucosal epithelial cells” value [3] was “able to activate DUOX-dependent ROS generation”.
